In PubChem BioAssay AID2060888 (Molecular Pharmacology Branch, DTP, NCI, 2025):

System: 695427-040-R-J1-PDC complex spheroid viability
Experiment: Anticancer human tumor 695427-040-R-J1-PDC patient-derived colon adenocarcinoma cell line growth inhibition [RAS]
Details: for IC50: curve of first compound; for viability, T/C: stronger effect = lower value
Outline: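 Tumour cells grown as complex spheroids with HUVEC endothelial cells and mesenchymal stem cells, treated with RAS pathway inhibitor combinations. Each agent spans half-log steps from near clinical Cmax, or 10 microM where Cmax is unknown.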

[1] = second compound 0.00316 µM, first compound 0.000949 µM
[2] = second compound 0.00316 µM, first compound 0.003 µM
[3] = second compound 0.00316 µM, first compound 0.00949 µM
[4] = second compound 0.00316 µM, first compound 0.03 µM
[5] = second compound 0.00316 µM, first compound 0.0949 µM
[6] = second compound 0.00316 µM, first compound 0.3 µM
[7] = second compound 0.01 µM, first compound 0.000949 µM
[8] = second compound 0.01 µM, first compound 0.003 µM
[9] = second compound 0.01 µM, first compound 0.00949 µM
[10] = second compound 0.01 µM, first compound 0.03 µM
[11] = second compound 0.01 µM, first compound 0.0949 µM
[12] = second compound 0.01 µM, first compound 0.3 µM
[13] = second compound 0.0316 µM, first compound 0.000949 µM
[14] = second compound 0.0316 µM, first compound 0.003 µM
[15] = second compound 0.0316 µM, first compound 0.00949 µM
[16] = second compound 0.0316 µM, first compound 0.03 µM
[17] = second compound 0.0316 µM, first compound 0.0949 µM
[18] = second compound 0.0316 µM, first compound 0.3 µM
[19] = second compound 0.1 µM, first compound 0.000949 µM
[20] = second compound 0.1 µM, first compound 0.003 µM
[21] = second compound 0.1 µM, first compound 0.00949 µM
[22] = second compound 0.1 µM, first compound 0.03 µM
[23] = second compound 0.1 µM, first compound 0.0949 µM
[24] = second compound 0.1 µM, first compound 0.3 µM
[25] = second compound 0.316 µM, first compound 0.000949 µM
[26] = second compound 0.316 µM, first compound 0.003 µM
[27] = second compound 0.316 µM, first compound 0.00949 µM
[28] = second compound 0.316 µM, first compound 0.03 µM
[29] = second compound 0.316 µM, first compound 0.0949 µM
[30] = second compound 0.316 µM, first compound 0.3 µM
[31] = second compound 1 µM, first compound 0.000949 µM
[32] = second compound 1 µM, first compound 0.003 µM
[33] = second compound 1 µM, first compound 0.00949 µM
[34] = second compound 1 µM, first compound 0.03 µM
[35] = second compound 1 µM, first compound 0.0949 µM
[36] = second compound 1 µM, first compound 0.3 µM
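Further: viability read after seven days of drug exposure.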
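Wherever viability, T/C is given: 100% = DMSO vehicle control viability.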

SMILES: CC1(C)CCC(Nc2ncc(C(F)(F)F)c(-c3c[nH]c4c(P(C)(C)=O)c(C#N)ccc34)n2)CN1 (stereo unspecified) + C=CC(=O)N1CCN(c2nc(OCC3CCCN3C)nc3c(F)c(-c4nc(N)cc(C)c4C(F)(F)F)c(Cl)cc23)C(C)C1
- IC50 (second compound 0.00316 µM): > 300 nM
- IC50 (second compound 0.01 µM): > 300 nM
- IC50 (second compound 0.0316 µM): > 300 nM
- IC50 (second compound 0.1 µM): > 300 nM
- IC50 (second compound 0.316 µM): > 300 nM
- IC50 (second compound 1 µM): > 300 nM
- viability, T/C [1]: 116%
- viability, T/C [2]: 107%
- viability, T/C [3]: 90.6%
- viability, T/C [4]: 86.5%
- viability, T/C [5]: 84.6%
- viability, T/C [6]: 79.2%
- viability, T/C [7]: 95.8%
- viability, T/C [8]: 93.3%
- viability, T/C [9]: 88.4%
- viability, T/C [10]: 78.8%
- viability, T/C [11]: 82.9%
- viability, T/C [12]: 84.9%
- viability, T/C [13]: 108%
- viability, T/C [14]: 89.9%
- viability, T/C [15]: 96.2%
- viability, T/C [16]: 75.7%
- viability, T/C [17]: 86.9%
- viability, T/C [18]: 77.4%
- viability, T/C [19]: 89.5%
- viability, T/C [20]: 95.4%
- viability, T/C [21]: 101%
- viability, T/C [22]: 84.7%
- viability, T/C [23]: 88%
- viability, T/C [24]: 78.4%
- viability, T/C [25]: 99%
- viability, T/C [26]: 94%
- viability, T/C [27]: 96.3%
- viability, T/C [28]: 83.8%
- viability, T/C [29]: 83.9%
- viability, T/C [30]: 81.1%
- viability, T/C [31]: 90.2%
- viability, T/C [32]: 87.3%
- viability, T/C [33]: 96.3%
- viability, T/C [34]: 78.6%
- viability, T/C [35]: 88.9%
- viability, T/C [36]: 79.2%

SMILES: CCc1c2c(nc3ccc(O)cc13)-c1cc3c(c(=O)n1C2)COC(=O)[C@]3(O)CC + C=CC(=O)N1CCN(c2nc(OCC3CCCN3C)nc3c(F)c(-c4nc(N)cc(C)c4C(F)(F)F)c(Cl)cc23)C(C)C1
- IC50 (second compound 0.00316 µM): 112 nM
- IC50 (second compound 0.01 µM): 123 nM
- IC50 (second compound 0.0316 µM): 129 nM
- IC50 (second compound 0.1 µM): 128 nM
- IC50 (second compound 0.316 µM): 144 nM
- IC50 (second compound 1 µM): 162 nM
- viability, T/C [1]: 88%
- viability, T/C [2]: 88.2%
- viability, T/C [3]: 84.8%
- viability, T/C [4]: 74.5%
- viability, T/C [5]: 54.3%
- viability, T/C [6]: 25.5%
- viability, T/C [7]: 98.8%
- viability, T/C [8]: 92.1%
- viability, T/C [9]: 78.7%
- viability, T/C [10]: 72.9%
- viability, T/C [11]: 58.4%
- viability, T/C [12]: 30.9%
- viability, T/C [13]: 92.7%
- viability, T/C [14]: 88.1%
- viability, T/C [15]: 79.4%
- viability, T/C [16]: 75.8%
- viability, T/C [17]: 60.9%
- viability, T/C [18]: 25.6%
- viability, T/C [19]: 94.8%
- viability, T/C [20]: 88.6%
- viability, T/C [21]: 79.3%
- viability, T/C [22]: 68.9%
- viability, T/C [23]: 60%
- viability, T/C [24]: 32%
- viability, T/C [25]: 96%
- viability, T/C [26]: 91.9%
- viability, T/C [27]: 82.7%
- viability, T/C [28]: 80%
- viability, T/C [29]: 63.6%
- viability, T/C [30]: 28.3%
- viability, T/C [31]: 93.2%
- viability, T/C [32]: 93.4%
- viability, T/C [33]: 85.1%
- viability, T/C [34]: 85.3%
- viability, T/C [35]: 62.4%
- viability, T/C [36]: 34.9%

SMILES: C=CC(=O)Nc1cc(Nc2nccc(-c3cn(C)c4ccccc34)n2)c(OC)cc1N(C)CCN(C)C + CCn1c(-c2cc(N3CCN(C)CC3)cnc2C(C)OC)c2c3cc(ccc31)-c1csc(n1)CC(NC(=O)C1CC1C)C(=O)N1CCCC(N1)C(=O)OCC(C)(C)C2
- IC50 (second compound 0.000949 µM): 523 nM
- IC50 (second compound 0.003 µM): 363 nM
- IC50 (second compound 0.00949 µM): 147 nM
- IC50 (second compound 0.03 µM): 44.3 nM
- IC50 (second compound 0.0949 µM): < 3.16 nM
- IC50 (second compound 0.3 µM): < 3.16 nM
- viability, T/C (second compound 0.000949 µM, first compound 0.00316 µM): 104%
- viability, T/C (second compound 0.000949 µM, first compound 0.01 µM): 91.1%
- viability, T/C (second compound 0.000949 µM, first compound 0.0316 µM): 75.1%
- viability, T/C (second compound 0.000949 µM, first compound 0.1 µM): 82.8%
- viability, T/C (second compound 0.000949 µM, first compound 0.316 µM): 58.1%
- viability, T/C (second compound 0.000949 µM, first compound 1 µM): 37.1%
- viability, T/C (second compound 0.003 µM, first compound 0.00316 µM): 103%
- viability, T/C (second compound 0.003 µM, first compound 0.01 µM): 88.7%
- viability, T/C (second compound 0.003 µM, first compound 0.0316 µM): 68%
- viability, T/C (second compound 0.003 µM, first compound 0.1 µM): 74%
- viability, T/C (second compound 0.003 µM, first compound 0.316 µM): 52.3%
- viability, T/C (second compound 0.003 µM, first compound 1 µM): 35.9%
- viability, T/C (second compound 0.00949 µM, first compound 0.00316 µM): 91.7%
- viability, T/C (second compound 0.00949 µM, first compound 0.01 µM): 78.3%
- viability, T/C (second compound 0.00949 µM, first compound 0.0316 µM): 68.9%
- viability, T/C (second compound 0.00949 µM, first compound 0.1 µM): 54.4%
- viability, T/C (second compound 0.00949 µM, first compound 0.316 µM): 41.5%
- viability, T/C (second compound 0.00949 µM, first compound 1 µM): 24.6%
- viability, T/C (second compound 0.03 µM, first compound 0.00316 µM): 58.9%
- viability, T/C (second compound 0.03 µM, first compound 0.01 µM): 60.1%
- viability, T/C (second compound 0.03 µM, first compound 0.0316 µM): 51.3%
- viability, T/C (second compound 0.03 µM, first compound 0.1 µM): 42.8%
- viability, T/C (second compound 0.03 µM, first compound 0.316 µM): 36.9%
- viability, T/C (second compound 0.03 µM, first compound 1 µM): 21.2%
- viability, T/C (second compound 0.0949 µM, first compound 0.00316 µM): 46.6%
- viability, T/C (second compound 0.0949 µM, first compound 0.01 µM): 45.7%
- viability, T/C (second compound 0.0949 µM, first compound 0.0316 µM): 34.2%
- viability, T/C (second compound 0.0949 µM, first compound 0.1 µM): 36.9%
- viability, T/C (second compound 0.0949 µM, first compound 0.316 µM): 24.4%
- viability, T/C (second compound 0.0949 µM, first compound 1 µM): 17.3%
- viability, T/C (second compound 0.3 µM, first compound 0.00316 µM): 33.3%
- viability, T/C (second compound 0.3 µM, first compound 0.01 µM): 34.9%
- viability, T/C (second compound 0.3 µM, first compound 0.0316 µM): 29.7%
- viability, T/C (second compound 0.3 µM, first compound 0.1 µM): 30.1%
- viability, T/C (second compound 0.3 µM, first compound 0.316 µM): 26.9%
- viability, T/C (second compound 0.3 µM, first compound 1 µM): 16.1%
